Results from ChEMBL document CHEMBL4373636, “Synthesis of endolides A and B: naturally occurring N-methylated cyclic tetrapeptides” (Medchemcomm, 2019).

Legend:
[1] = target: 5-hydroxytryptamine receptor 2B (Homo sapiens, UniProt P41595); experiment: Binding affinity to 5HT2b (unknown origin)
[2] = target: Vasopressin V1a receptor (Homo sapiens, UniProt P37288); experiment: Binding affinity to vasopressin 1A receptor (unknown origin)
Vasopressin V1a receptor, sequence (P37288 whole entry): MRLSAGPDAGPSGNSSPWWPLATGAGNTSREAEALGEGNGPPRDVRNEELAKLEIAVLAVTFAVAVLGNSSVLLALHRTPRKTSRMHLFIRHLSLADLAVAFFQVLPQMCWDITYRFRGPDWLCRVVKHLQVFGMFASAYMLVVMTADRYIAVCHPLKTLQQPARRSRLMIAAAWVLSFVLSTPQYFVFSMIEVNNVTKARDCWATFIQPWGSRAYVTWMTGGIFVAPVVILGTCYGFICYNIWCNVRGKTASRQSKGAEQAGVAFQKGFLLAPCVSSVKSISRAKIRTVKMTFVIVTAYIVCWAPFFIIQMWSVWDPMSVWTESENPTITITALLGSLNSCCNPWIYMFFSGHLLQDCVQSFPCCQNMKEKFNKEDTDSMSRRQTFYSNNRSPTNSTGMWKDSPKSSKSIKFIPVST

5-hydroxytryptamine receptor 2B, sequence (P41595 whole entry): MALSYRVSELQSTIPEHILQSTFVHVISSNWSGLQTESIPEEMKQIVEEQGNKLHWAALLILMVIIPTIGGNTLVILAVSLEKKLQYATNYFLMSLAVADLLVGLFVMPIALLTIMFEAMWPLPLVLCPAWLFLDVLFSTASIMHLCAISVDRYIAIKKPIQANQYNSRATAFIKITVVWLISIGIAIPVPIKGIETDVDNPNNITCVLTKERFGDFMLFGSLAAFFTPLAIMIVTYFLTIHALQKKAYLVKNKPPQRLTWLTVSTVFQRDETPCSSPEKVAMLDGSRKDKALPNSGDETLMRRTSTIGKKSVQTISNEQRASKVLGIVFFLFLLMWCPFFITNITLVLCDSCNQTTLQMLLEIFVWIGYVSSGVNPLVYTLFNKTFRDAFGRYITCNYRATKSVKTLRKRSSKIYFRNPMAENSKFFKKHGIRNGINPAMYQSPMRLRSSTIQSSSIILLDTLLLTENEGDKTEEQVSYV

Row | Structure (SMILES) | Ki [1] | Ki [2]
1 | CC(C)[C@@H]1NC(=O)[C@H](Cc2ccoc2)N(C)C(=O)[C@H](Cc2ccoc2)NC(=O)[C@H](Cc2ccoc2)N(C)C1=O | 0.77 µM | 
2 | CC(C)C[C@@H]1NC(=O)[C@H](Cc2ccoc2)N(C)C(=O)[C@H](C(C)C)NC(=O)[C@H](Cc2ccoc2)N(C)C1=O |  | 7.04 µM
